Earlier results in patent US9625448B2, “Double caged GABA compounds, bis-CNB-GABA” (The Trustees of Princeton University, priority 2014, dated 2017).
“Also recorded” adds a separate entry of the source. Like-named read-outs stand apart in the source and are kept apart here.

Columns and labels:
dentate granule cells = test system: dentate granule cells; design: dose or concentration left out as unconfirmed; conditions: holding potential −80 mV; cited from earlier work
GABAA receptors = conditions: cited from earlier work

NCCCC(=O)OC(C(=O)O)c1ccccc1[N+](=O)[O-] (centres unmarked) [mono-CNB-GABA]
effect on EPSC evoked by stimulation of the perforant path (dentate granule cells): did not significantly affect | effect on GABA-evoked currents (GABAA receptors; 200 μM): reversibly eliminated | IC50 (GABAA receptors; Molnár & Nadler, 2000, read-out: IC50, suppression of GABA-evoked IPSC currents): 28 µM | IC50 (GABAA receptors; Table 2, O-CNB-GABA in hippocampal dentate neurons, read-out: IC50 in blocking synaptic GABAA currents): 28 µM | activity at GABA receptors before photolysis (GABAA receptors): antagonize GABA receptors; also recorded: antagonist of GABAA receptors
